We go through 2 compounds from US5075464A, “17β-(cyclopropylamino)androstene derivatives” (Merrell Dow Pharmaceuticals Inc., priority 1989, dated 1991).

The target in this test is T1, enzymes in the synthesis of aldosterone (Rattus norvegicus, UniProt P30099).
T1 construct: adrenal capsule/glomerulosa homogenates were prepared (6 mg/ml); from tissue; host or cells: adrenal capsule/glomerulosa of sodium-deficient young male Sprague-Dawley rats (homogenate, 500xg supernatant)
The test is described as follows: inhibition of aldosterone formation from [3H]-DOC in adrenal capsule/glomerulosa homogenates. The test is classed as biochemical, Sprague-Dawley rats. As to conditions: Kitz-Wilson plots, rat adrenal capsule/glomerulosa homogenate. As for the experimental part: Young male Sprague-Dawley rats were maintained on a sodium-deficient diet for about two weeks prior to use. From these animals, adrenal capsule/glomerulosa homogenates were prepared (6 mg/ml) in pH 7.4 assay buffer [MgCl2 8.5 mM, CaCl2 2.7 mM, KCl 3.13 mM, NaCl 7.591 mM, TRIS 50 mM and 0.1% triethylamine] and centrifuged 500xg for 10 minutes.
Assays were conducted in 35 ml glass tubes maintained at 25° C. in a Dubnoff shaker with 95% O2 /5% CO2. The tubes contained the following material: 100 μl of an NADPH+ generating system, 300 μl of adrenal capsular/glomerulosa cytosol, and 50 μl of test compound or buffer (control). After initial preincubation intervals of 20 minutes, the 10-minute assay was started by the addition of 50 μl of tritium-labelled substrate, i.e., 1 μM [^3 H]-DOC. Reactions were quenched by the addition of 5 ml of ethyl acetate and non-radiolabelled steroids were also added. […]
Substrate remaining and products formed were monitored by UV absorbance at 246 nm and the amount of steroid compound present was quantified by [^3 H] radioactivity. […] The Ki time-dependent inhibition and the t1/2 for enzyme inactivation at infinite inhibitor concentration (t50) was determined by the linear regression analyses of t1/2 vs. 1/[I] data of Kitz-Wilson plots Using this procedure, the following results were observed: […]

With `CN(C1CC1)[C@H]1CC[C@H]2[C@@H]3CCC4=CC(=O)CC[C@]4(C)[C@H]3CC[C@]12C` [17β-[N-methyl(cyclopropylamino)]androst-4-en-3-one], the “t50 (t1/2 for enzyme inactivation at infinite inhibitor concentration)” value came to 15.4 min.
For `CN(C1CC1)[C@H]1CC[C@H]2[C@@H]3CC=C4C[C@@H](O)CC[C@]4(C)[C@H]3CC[C@]12C` [17β-[N-methyl(cyclopropylamino)]androst-5-en-3β-ol] the value was 9.0 min.
